# Assay results as given in ChEMBL document CHEMBL1909046, “DrugMatrix in vitro pharmacology data”.
# How the values were obtained:
# [1] = DRUGMATRIX: Sigma2 radioligand binding (ligand: [3H] Ifenprodil); type: cell membranes, Rattus norvegicus, Wistar, Brain, Membrane; conditions: Not Active = under 50% inhibition at 10 µM
# [2] = DRUGMATRIX: Calcium Channel Type L, Phenylalkylamine radioligand binding (ligand: [3H] (-)-Desmethoxyverapamil (D-888)); type: cell membranes, Rattus norvegicus, Wistar, Brain, Membrane; conditions: Not Active = under 50% inhibition at 10 µM
# [3] = biological target: T1, C-X-C chemokine receptor type 2 (Homo sapiens, UniProt P25025); type: cell membranes, Membrane; conditions: cho-k1; further: in other assays of this panel Not Active means under 50% inhibition at 10 µM
# T1 sequence (P25025 whole entry): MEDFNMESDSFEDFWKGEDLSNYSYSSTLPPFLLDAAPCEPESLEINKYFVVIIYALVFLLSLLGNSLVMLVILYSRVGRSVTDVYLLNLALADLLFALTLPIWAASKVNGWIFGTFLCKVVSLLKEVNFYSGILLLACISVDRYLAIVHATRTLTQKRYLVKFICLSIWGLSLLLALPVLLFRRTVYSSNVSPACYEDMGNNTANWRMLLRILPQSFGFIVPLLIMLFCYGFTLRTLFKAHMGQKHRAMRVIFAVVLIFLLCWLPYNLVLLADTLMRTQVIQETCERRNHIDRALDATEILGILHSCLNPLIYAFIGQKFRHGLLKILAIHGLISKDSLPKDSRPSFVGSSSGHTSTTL
# [4] = biological target: T2, Neuropeptide Y receptor type 2 (Homo sapiens, UniProt P49146); type: cell membranes, Membrane; conditions: kan-ts; further: in other assays of this panel Not Active means under 50% inhibition at 10 µM
# T2 sequence (P49146 whole entry): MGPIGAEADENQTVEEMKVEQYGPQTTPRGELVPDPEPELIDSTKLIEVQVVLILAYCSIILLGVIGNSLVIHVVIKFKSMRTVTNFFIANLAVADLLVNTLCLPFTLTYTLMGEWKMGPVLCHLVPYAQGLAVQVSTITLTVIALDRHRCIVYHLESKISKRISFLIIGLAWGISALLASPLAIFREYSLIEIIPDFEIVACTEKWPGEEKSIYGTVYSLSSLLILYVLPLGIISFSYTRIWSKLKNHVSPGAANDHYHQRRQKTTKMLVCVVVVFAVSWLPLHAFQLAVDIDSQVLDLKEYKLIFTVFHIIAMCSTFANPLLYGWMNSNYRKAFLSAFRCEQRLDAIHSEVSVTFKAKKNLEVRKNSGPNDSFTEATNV
# Progesterone receptor = biological target: T3, Progesterone receptor (Bos taurus, UniProt Q690N0); test: DRUGMATRIX: Progesterone radioligand binding (ligand: [3H] R-5020); type: tissue-based, Uterus; conditions: Not Active = under 50% inhibition at 10 µM
# T3 sequence (Q690N0 whole entry): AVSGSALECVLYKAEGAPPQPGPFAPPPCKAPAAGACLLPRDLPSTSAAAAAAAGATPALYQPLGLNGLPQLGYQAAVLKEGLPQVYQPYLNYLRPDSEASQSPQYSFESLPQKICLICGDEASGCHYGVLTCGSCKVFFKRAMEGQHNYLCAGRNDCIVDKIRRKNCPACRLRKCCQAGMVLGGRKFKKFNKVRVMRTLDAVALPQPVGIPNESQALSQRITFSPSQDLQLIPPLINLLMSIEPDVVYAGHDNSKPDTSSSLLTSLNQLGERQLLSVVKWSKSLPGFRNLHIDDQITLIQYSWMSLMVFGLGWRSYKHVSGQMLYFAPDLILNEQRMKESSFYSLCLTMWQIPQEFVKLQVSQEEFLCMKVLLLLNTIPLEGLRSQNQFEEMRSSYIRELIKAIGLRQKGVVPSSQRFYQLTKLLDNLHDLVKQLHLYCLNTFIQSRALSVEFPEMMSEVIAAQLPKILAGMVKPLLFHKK
# Cytochrome P450 2C19 = Cytochrome P450 2C19 (Homo sapiens, UniProt P33261); conditions: bti-tn-5b1-4; further: in other assays of this panel Not Active means under 50% inhibition at 10 µM
# Chain of Cytochrome P450 2C19 (P33261 whole entry): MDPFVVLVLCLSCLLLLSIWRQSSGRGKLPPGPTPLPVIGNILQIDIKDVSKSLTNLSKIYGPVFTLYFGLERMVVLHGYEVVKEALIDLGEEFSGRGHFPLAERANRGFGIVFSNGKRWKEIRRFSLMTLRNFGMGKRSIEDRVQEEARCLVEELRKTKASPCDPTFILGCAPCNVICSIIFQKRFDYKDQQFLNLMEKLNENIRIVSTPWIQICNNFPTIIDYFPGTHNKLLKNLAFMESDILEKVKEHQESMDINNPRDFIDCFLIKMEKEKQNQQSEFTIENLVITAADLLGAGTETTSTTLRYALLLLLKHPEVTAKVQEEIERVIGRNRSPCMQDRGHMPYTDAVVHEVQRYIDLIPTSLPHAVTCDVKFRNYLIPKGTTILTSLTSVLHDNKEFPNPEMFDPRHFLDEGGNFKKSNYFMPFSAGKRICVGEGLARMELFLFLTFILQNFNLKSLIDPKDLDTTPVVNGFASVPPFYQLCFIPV
# [5] = biological target: Voltage-gated inwardly rectifying potassium channel KCNH2 (Homo sapiens, UniProt Q12809); conditions: hek293; further: in other assays of this panel Not Active means under 50% inhibition at 10 µM
# Chain of Voltage-gated inwardly rectifying potassium channel KCNH2 (Q12809 whole entry): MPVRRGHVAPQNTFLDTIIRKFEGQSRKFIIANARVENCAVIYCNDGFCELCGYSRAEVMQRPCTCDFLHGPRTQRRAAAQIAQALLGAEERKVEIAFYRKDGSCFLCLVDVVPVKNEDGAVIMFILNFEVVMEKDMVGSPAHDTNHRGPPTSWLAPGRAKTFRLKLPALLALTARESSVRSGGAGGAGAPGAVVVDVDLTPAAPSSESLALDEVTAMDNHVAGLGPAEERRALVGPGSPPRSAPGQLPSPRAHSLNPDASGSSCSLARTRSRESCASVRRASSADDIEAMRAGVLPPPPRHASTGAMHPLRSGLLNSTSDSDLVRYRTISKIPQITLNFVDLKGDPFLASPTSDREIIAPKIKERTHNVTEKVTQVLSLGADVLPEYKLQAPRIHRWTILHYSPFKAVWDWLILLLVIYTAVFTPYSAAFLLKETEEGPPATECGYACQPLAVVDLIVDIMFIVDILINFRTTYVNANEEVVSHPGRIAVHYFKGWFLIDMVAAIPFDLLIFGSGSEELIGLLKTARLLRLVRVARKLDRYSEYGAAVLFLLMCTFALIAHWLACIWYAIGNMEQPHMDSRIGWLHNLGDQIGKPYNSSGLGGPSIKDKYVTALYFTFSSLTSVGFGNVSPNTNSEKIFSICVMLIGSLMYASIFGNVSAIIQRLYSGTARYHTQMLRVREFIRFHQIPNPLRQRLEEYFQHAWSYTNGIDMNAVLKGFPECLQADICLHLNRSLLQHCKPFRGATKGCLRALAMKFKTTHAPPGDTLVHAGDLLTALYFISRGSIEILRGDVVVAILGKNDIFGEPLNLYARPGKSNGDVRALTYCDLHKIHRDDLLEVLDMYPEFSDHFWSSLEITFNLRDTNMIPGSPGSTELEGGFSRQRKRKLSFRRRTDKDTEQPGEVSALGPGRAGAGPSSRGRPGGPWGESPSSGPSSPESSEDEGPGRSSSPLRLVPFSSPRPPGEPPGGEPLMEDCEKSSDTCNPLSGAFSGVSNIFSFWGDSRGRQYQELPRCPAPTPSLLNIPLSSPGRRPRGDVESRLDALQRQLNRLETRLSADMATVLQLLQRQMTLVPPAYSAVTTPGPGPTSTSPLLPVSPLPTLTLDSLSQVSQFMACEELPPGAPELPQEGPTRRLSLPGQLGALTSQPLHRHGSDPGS
Structure (SMILES),IC50 [1],Ki [1],IC50 [2],Ki [2],IC50 [3],IC50 [4],IC50 (Progesterone receptor),IC50 (Cytochrome P450 2C19),Ki (Cytochrome P450 2C19),IC50 [5],Ki [5],IC50 ([1]; read-out: IC50),Ki ([1]; read-out: Ki),IC50 ([2]; read-out: IC50),Ki ([2]; read-out: Ki)
CCOC(=O)c1ncn2c1CN(C)C(=O)c1cc(F)ccc1-2 [FLUMAZENIL],Not Active,Not Active,Not Active,Not Active,Not Active,Not Active,Not Active,Not Active,Not Active,Not Active,Not Active,,,,
O=C(O)P(=O)(O)O [FOSCARNET],Not Active,Not Active,Not Active,Not Active,Not Active,Not Active,Not Active,Not Active,Not Active,Not Active,Not Active,,,,
Cc1ccc(C)c(OCCCC(C)(C)C(=O)O)c1 [GEMFIBROZIL],Not Active,Not Active,Not Active,Not Active,Not Active,Not Active,Not Active,Not Active,Not Active,Not Active,Not Active,,,,
O=c1c(-c2ccc(O)cc2)coc2cc(O)cc(O)c12 [GENISTEIN],Not Active,Not Active,Not Active,Not Active,Not Active,Not Active,Not Active,Not Active,Not Active,Not Active,Not Active,,,,
CCC1=C(C)CN(C(=O)NCCc2ccc(S(=O)(=O)NC(=O)N[C@H]3CC[C@H](C)CC3)cc2)C1=O [GLIMEPIRIDE],Not Active,Not Active,Not Active,Not Active,Not Active,Not Active,Not Active,Not Active,Not Active,Not Active,Not Active,,,,
Nc1cc(-c2ccncc2)c[nH]c1=O [INAMRINONE],Not Active,Not Active,Not Active,Not Active,Not Active,Not Active,Not Active,Not Active,Not Active,Not Active,Not Active,,,,
CCCCC1=NC2(CCCC2)C(=O)N1Cc1ccc(-c2ccccc2-c2nnn[nH]2)cc1 [IRBESARTAN],Not Active,Not Active,Not Active,Not Active,Not Active,Not Active,Not Active,Not Active,Not Active,Not Active,Not Active,,,,
CN1CCC(=C2c3ccccc3CC(=O)c3sccc32)CC1 [KETOTIFEN],Not Active,Not Active,Not Active,Not Active,Not Active,Not Active,Not Active,Not Active,Not Active,Not Active,Not Active,,,,
C[N+](C)(C)C[C@H](O)CC(=O)[O-] [LEVOCARNITINE],Not Active,Not Active,Not Active,Not Active,Not Active,Not Active,Not Active,Not Active,Not Active,Not Active,Not Active,,,,
C[C@H]1COc2c(N3CCN(C)CC3)c(F)cc3c(=O)c(C(=O)O)cn1c23.C[C@H]1COc2c(N3CCN(C)CC3)c(F)cc3c(=O)c(C(=O)O)cn1c23.O [LEVOFLOXACIN],Not Active,Not Active,Not Active,Not Active,Not Active,Not Active,Not Active,Not Active,Not Active,Not Active,Not Active,,,,
CN1CCCC(CN2c3ccccc3Sc3ccccc32)C1 (stereo unspecified) [MEPAZINE],,,,,Not Active,Not Active,Not Active,Not Active,Not Active,Not Active,Not Active,0.631 µM,0.388 µM,1.55 µM,1.5 µM
